Experimental data published in patent US5607850A, “Enzyme from microbial source: phthalyl amidase” (Eli Lilly and Company, priority 1995, dated 1997).
Like-named read-outs stand apart in the source and are kept apart here. One block for each compound: values may come before it.

Key:
[1] = target: T1, phthalyl amidase (Xanthobacter agilis, UniProt P0C2Y0); experiment: Influence of effectors and organic solvents on phthalyl amidase activity; type: biochemical
Method: A typical reaction mixture consisted of 1 ml total volume and contained 0.1 mM III, 0.1 μM phthalyl amidase in 50 mM potassium phosphate buffer (pH 5.5-9.0) at 32° C. for 20 minutes. The reactions were stopped by the addition of 1 ml methanol. After removal of precipitate by centrifugation, an aliquot of the supernatant fraction (typically 30 μl) was monitored for the beta-lactam nucleus and phthalic acid by HPLC using a Zorbax C8 column (0.46×15 cm; MacMod Analytical Inc., Chadds Ford, Pa.). The two reaction products were eluted by a mobile phase constructed as continuous mixed gradients from (a) 1% ACN (acetonitrile)/0.2% TFA (trifluoroacetic acid) and (b) 80% ACN/0.2% TFA as follows: 1) 0% (b), 3min; 2) 0-50% (b), 0.5 min; 3) 50-100% (b), 3 min; 4) 100% (b), 2.5 min; 5) 100-1% (b), 0.1 min; and 6) 0% (b), 5 min.
The effect of various agents on the enzymatic activity of phthalyl amidase was determined using standard conditions (see Example 5). All agents were tested at 1 mM final concentration unless otherwise indicated.

[2] = Stability of phthalyl amidase: effect of ionic strength and pH; type: physicochemical; conditions: 200 mM salt added to 20 mM buffer
Method: The stability of phthalyl amidase at pH values ranging from 6-9 was determined as described in Example 5 at 30° C. in both 20 and 200 mM potassium phosphate buffer. […] In 200 mM buffer, the enzyme retained at least 80% of its activity for 100 hours irrespective of the pH of the incubating medium.

[3] = target: T1, phthalyl amidase; experiment: Chiral and additional substrate selectivity of phthalyl amidase (Table 13); type: biochemical; conditions: 30° C.; for Relative Activity: Table 13
Method: Several additional substrates were tested in a total volume of 1 ml. […] Reactions were stopped by the addition of methanol, and phthalic acid formation was monitored by HPLC.

[4] = target: T1, phthalyl amidase; experiment: Preparative scale enzymatic hydrolysis to carbacephem nucleus; type: biochemical; conditions: 510 minutes, 30° C., pH 8.0, 80 units enzyme
Method: Thus, either compound XXXIII or III can be used to prepare the carbacephem nucleus (XXXIV). Substrate (5 grams) was added to 20 ml of deionized water and the pH of the solution was adjusted to 8.0 with concentrated ammonium hydroxide. Phthalyl amidase, 80 units as determined using the chromogenic substrate (II), was added to start the reaction. Temperature was maintained at 30° C. and the pH maintained at 8.0 by adding 2 N ammonium hydroxide. […] The pH of the reaction was lowered to 5.0 thereby precipitating the carbacephem nucleus. Isolated yields of the nucleus were between 65% and 77%. [drawing 26]

[5] = target: T1, phthalyl amidase; experiment: Kinetic parameters for phthalyl amidase; type: biochemical; conditions: Table 12; 32° C., pH 8.2
Method: The kinetic parameters of the enzyme were determined for several representative substrates. Compounds II, XVII, and XVIII were tested using 0.9 μg/ml of enzyme. Compounds III and XI were tested using 5.14 μg/ml of enzyme. Substrate concentrations were between 0 and 25 mM and reaction time was between 2 and 20 minutes, depending on the substrate used. All reactions were run at 32° C. and at pH 8.2. Km is the Michaelis constant for enzyme kinetics, Vmax is the maximal rate of reaction calculated by the Michaelis-Menten equation, and Kcat is the catalytic constant for an enzyme reaction.

[6] = target: T1, phthalyl amidase; experiment: Substrate specificity of phthalyl amidase (Tables 9-11); type: biochemical; conditions: Table 9, beta-lactams; 30° C., pH 8.0
Method: the activity of phthalyl amidase against 25 compounds was determined. The compounds were divided into beta-lactams (Table 9), phthalyl amides (Table 10), and aromatic ring substituted amides (Table 11). Each reaction mixture (1 ml total volume) contained 2.5 μmol of compound and 0.3 units of enzyme (based on the chromogenic substrate) of the preparative scale purified enzyme, in 50 mM phosphate buffer, pH 8.0. The reactions were conducted at 30° C. Samples of the reaction mixture were taken at various times, and methanol (equal value) was added to stop the reaction. The samples were examined by HPLC to determine the extent of substrate hydrolysis. The amount of compound hydrolyzed was calculated from a standard curve of the test compound. All substrates were stable in buffer at 30° C. and pH 8.0 in the absence of enzyme for 24 hours.

T1 sequence (P0C2Y0 2-453): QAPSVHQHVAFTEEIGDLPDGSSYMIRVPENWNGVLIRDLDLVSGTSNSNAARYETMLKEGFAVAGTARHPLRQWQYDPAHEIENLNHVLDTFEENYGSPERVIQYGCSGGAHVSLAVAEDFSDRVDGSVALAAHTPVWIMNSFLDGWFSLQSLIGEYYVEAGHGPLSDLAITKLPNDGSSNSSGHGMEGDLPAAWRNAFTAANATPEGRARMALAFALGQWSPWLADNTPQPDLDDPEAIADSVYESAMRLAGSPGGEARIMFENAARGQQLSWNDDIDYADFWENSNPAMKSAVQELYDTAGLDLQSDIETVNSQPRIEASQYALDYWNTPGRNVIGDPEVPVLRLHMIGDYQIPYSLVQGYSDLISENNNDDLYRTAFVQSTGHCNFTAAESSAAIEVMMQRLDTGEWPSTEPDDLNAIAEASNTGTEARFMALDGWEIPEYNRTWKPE

Compound: [Cl-].[K+] [KCl, reference compound]
- % of Control Activity ([1]; 1 mM agent): 100%
- protection of enzyme against activity loss [2]: protected against activity loss

Compound: O=C(O)c1ccccc1C(=O)Nc1ccccc1 [Compound XXXI]
- substrate preference [3]: twice that of compound III
- Relative Activity ([3]; 2 minutes): 200

Compound: O=C(O)c1ccccc1C(=O)N[C@H](C(=O)O)c1ccccc1 [Compound XXX, N-phthalyl-phenylglycine]
- substrate preference [3]: poor substrates for the enzyme
- substrate preference ([3]; listed as L isomer): extremely poor substrate
- Relative Activity ([3]; run for a longer time period): 1.3

Compound: [Cl-].[Na+] [NaCl, reference compound]
- % of Control Activity [1]: 104%
- protection of enzyme against activity loss [2]: protected against activity loss

Now from value to compound:

- hydrolyzed [4]: 90.0%
- Km [5]: 900 µM
- Vmax [5]: 7.6 μmol/sec/μmol
- Relative Activity ([3]; 2 minutes): 100
- Relative Activity [6]: 100
Compound: O=C(O)C1=C(Cl)CCC2C(NC(=O)c3ccccc3C(=O)O)C(=O)N12 (centres unmarked) [III, 7-phthalamido-3-chloro-4-carboxy-1-carba-dethioceph-3-em]

- hydrolyzed [4]: 98%
Compound: O=C(O)C1=C(Cl)CCC2C(N3C(=O)c4ccccc4C3=O)C(=O)N12 (centres unmarked) [XXXIII, Phthalimido carbacephem]

- substrate preference [3]: poor substrates for the enzyme
- Relative Activity ([3]; run for a longer time period): 0.0
Compound: O=C(Nc1ccccc1)c1ccccc1S(=O)(=O)O [XXXII]
